± gives the standard deviation of the reports.
Molecule `*CC(O)COc1ccc(C(C)(C)c2ccc(OCC(O)COc3ccc(S(=O)(=O)c4ccc(O*)cc4)cc3)cc2)cc1` (repeat unit) has a glass transition temperature of 140.00 °C.
Work on `*/C=C/c1ccc(OC(=O)CCCCCCCCC(=O)Oc2cccc(-c3nnc(*)s3)c2)cc1` (repeat unit) yielded a glass transition temperature of 37.00 °C.
`*c1ccc(Cc2ccc(-n3nccc3-c3cccc(-c4ccnn4*)c3)cc2)cc1` (repeat unit) gave a glass transition temperature of 212.00 °C.
With `*CC(*)c1cc(C(=O)OCCCC)ccc1-c1ccc(OCCCCCCCC)cc1` (repeat unit) the glass transition temperature was 74.00 °C.
In the case of `*c1ccc2c(c1)C(=O)N(c1c(C)cc(C(c3cc(C(F)(F)F)cc(C(F)(F)F)c3)c3cc(C)c(N4C(=O)c5ccc(C(*)(C(F)(F)F)C(F)(F)F)cc5C4=O)c(C)c3)cc1C)C2=O` (repeat unit), the glass transition temperature is reported as 288.00 °C.
`*C(=O)c1cc2c(cc1Cl)C(=O)N(c1cc(N3C(=O)c4cc(*)c(Cl)cc4C3=O)cc(C(C)(C)C)c1)C2=O` (repeat unit) showed a glass transition temperature of 290.00 °C.
Molecule `*CC(CCCCCCOc1ccc(/N=N/c2ccc(C#N)cc2)cc1)COC(=O)CCCCCCCCCCCCC(=O)O*` (repeat unit) has a glass transition temperature of 21.50 °C.
`*CCN(*)C(=O)CC` (repeat unit) showed a glass transition temperature of 60.00 °C.
In the case of `*C(=O)Nc1ccc(Cc2ccc(NC(=O)c3ccc4c(c3)C(=O)N(c3ccc(Oc5ccc6ccc(Oc7ccc(N8C(=O)c9ccc(*)cc9C8=O)cc7)cc6c5)cc3)C4=O)cc2)cc1` (repeat unit), the glass transition temperature is reported as 273.00 °C.
Molecule `*CC(*)c1cc(Br)ccc1OCC` (repeat unit) has a glass transition temperature of 80.00 °C.
Work on `*OC(=O)Nc1ccc(C)c(NC(=O)OC2CCN(c3ccc(/C=C/C4=CC(=C(C#N)C#N)C=C(/C=C/c5ccc(N6CCC(*)CC6)s5)O4)s3)CC2)c1` (repeat unit) yielded a glass transition temperature of 212.00 °C.
For `*Cc1ccc(C(C)(C)c2ccc(CN3C(=O)c4ccc(Oc5ccc6c(c5)C(=O)N(*)C6=O)cc4C3=O)o2)o1` (repeat unit), the glass transition temperature was 116.00 °C.
`*c1ccc(Oc2ccc(-c3nc4cc(-c5ccc6nc(*)c(-c7ccccc7)nc6c5)ccc4nc3-c3ccccc3)cc2)cc1` (repeat unit) showed a glass transition temperature of 292.50 °C.
With `*OC1C(C)(C)C(OC(=O)c2ccc(C(*)=O)cc2)C1(C)C` (repeat unit) the glass transition temperature was 184.00 °C.
`*C(=O)c1ccc2c(c1)C(=O)N(c1ccc(Oc3ccccc3Oc3ccc(N4C(=O)c5ccc(*)cc5C4=O)cc3C(F)(F)F)c(C(F)(F)F)c1)C2=O` (repeat unit) showed a glass transition temperature of 236.00 °C.
Molecule `*CCCOC(=O)Nc1cc(NC(=O)O*)ccc1C` (repeat unit) has a glass transition temperature of 6.00 °C.
`*CC(*)c1cc(Cl)ccc1Cl` (repeat unit) gave a glass transition temperature of 108.00 °C.
Work on `*Oc1ccc(/C(C)=N/c2ccc(/N=C(\C)c3ccc(Oc4ccc(C(C)(C)c5ccc(*)cc5)cc4)cc3)cc2)cc1` (repeat unit) yielded a glass transition temperature of 161.00 °C.
Work on `*CC(*)(C)C(=O)OC1CCCCC1C(C)(C)C` (repeat unit) yielded a glass transition temperature of 185.00 °C.
Work on `*Nc1ccc(CC(C)(C)NC(=O)c2ccc(C(*)=O)cc2)cc1` (repeat unit) yielded a glass transition temperature of 175.00 °C.
With `*Oc1ccc(OC(=O)c2ccc(C(*)=O)cc2Oc2ccccc2)cc1` (repeat unit) the glass transition temperature was 105.00 °C.
Work on `*OCC(F)(F)C(F)(F)C(F)(F)COc1nc(F)nc(*)c1F` (repeat unit) yielded a glass transition temperature of 0.00 °C.
With `*CCOC(=O)c1ccc2cc(C(=O)O*)ccc2c1` (repeat unit) [Poly(ethylene 2,6-naphthalate)] the glass transition temperature was 121.42 ± 2.3 °C.
For `*CC(C)(C)COC(=O)CCC(=O)O*` (repeat unit), the glass transition temperature was -18.00 °C.
In the case of `*c1ccc(Cc2ccc(-n3nccc3-c3ccc(-c4ccnn4*)cc3)cc2)cc1` (repeat unit), the glass transition temperature is reported as 202.00 °C.
For `*c1ccc(Oc2c(C)cc(C(c3cc(C)c(Oc4ccc(-n5c(=O)c6cc7c(=O)n(*)c(=O)c7cc6c5=O)cc4)c(C)c3)c3cccc4ccccc34)cc2C)cc1` (repeat unit), the glass transition temperature was 315.00 °C.
`*c1ccc2c(c1)C(=O)N(c1cccc(Oc3ccc(C(c4ccc(Oc5cccc(N6C(=O)c7ccc(C(*)(C(F)(F)F)C(F)(F)F)cc7C6=O)c5)cc4)(C(F)(F)F)C(F)(F)F)cc3)c1)C2=O` (repeat unit) showed a glass transition temperature of 224.00 °C.
Work on `*CC(=O)Nc1ccc(NC(=O)COc2ccc3ccccc3c2Sc2c(O*)ccc3ccccc23)cc1` (repeat unit) yielded a glass transition temperature of 268.00 °C.
`*Oc1ccc(-c2ccc(Oc3ccc(Oc4ccc(Oc5ccc(*)cc5)cc4)cc3)c3ccccc23)c2ccccc12` (repeat unit) showed a glass transition temperature of 147.00 °C.
With `*/C=C/c1ccc2c(c1)Sc1cc(*)ccc1N2c1ccc(OCCCCCCCCCCCC)cc1` (repeat unit) the glass transition temperature was 129.00 °C.
`*c1ccc2c(c1)C(=O)N(c1ccc(C(c3ccccc3)(c3ccc(N4C(=O)c5ccc(C(*)(C(F)(F)F)C(F)(F)F)cc5C4=O)cc3)C(F)(F)F)cc1)C2=O` (repeat unit) showed a glass transition temperature of 305.00 °C.
For `*c1ccc(-c2nnc(*)o2)c(OCC)c1` (repeat unit), the glass transition temperature was 231.00 °C.
For `*CC(F)(F)C(F)(F)C(F)(F)C(F)(F)COC(=O)NCC(F)(F)C(F)(F)C(F)(F)C(F)(F)CNC(=O)O*` (repeat unit), the glass transition temperature was 20.00 °C.
Molecule `*c1ccc(Oc2ccc(-c3nc4cc5sc(*)nc5cc4s3)cc2)cc1` (repeat unit) has a glass transition temperature of 350.00 °C.
Molecule `*CNC(=O)OC(c1ccco1)C(OC(=O)NCc1ccc(C(C)(C)c2ccc(*)o2)o1)c1ccco1` (repeat unit) has a glass transition temperature of 45.00 °C.
`*Oc1ccc(C2(c3ccc(Oc4ccc(C(=O)Oc5c(C)cc(C(C)(C)c6cc(C)c(OC(=O)c7ccc(*)cc7)c(C)c6)cc5C)cc4)cc3)CCC(C(C)(C)C)CC2)cc1` (repeat unit) gave a glass transition temperature of 176.00 °C.
For `*O[Si](C)(C)O[Si](C)(C)c1c(F)c(F)c(F)c([Si](*)(C)C)c1F` (repeat unit), the glass transition temperature was -61.00 °C.
Work on `*c1ccc(Sc2ccc(Sc3ccc(N4C(=O)c5ccc(Sc6ccc(Sc7ccc(Sc8ccc9c(c8)C(=O)N(*)C9=O)cc7)cc6)cc5C4=O)cc3)cc2)cc1` (repeat unit) yielded a glass transition temperature of 190.8 °C.
Work on `*Nc1ccc(CC(C)(C)NC(=O)CCCCC(*)=O)cc1` (repeat unit) yielded a glass transition temperature of 130.00 °C.
In the case of `*CCCCOCCCCOCCCCOC(=O)c1ccc(/N=C/c2ccc(/C=N/c3ccc(C(=O)O*)cc3)cc2)cc1` (repeat unit), the glass transition temperature is reported as -13.20 °C.
Molecule `*Oc1ccc(P(=O)(c2ccccc2)c2ccc(Oc3ccc(C(c4ccc(*)cc4)(C(F)(F)F)C(F)(F)F)cc3)cc2)cc1` (repeat unit) has a glass transition temperature of 210.50 °C.
`*c1ccc(-c2c(-c3ccccc3)nc3ccc(-c4ccc5nc(-c6ccccc6)c(*)c(-c6ccccc6)c5c4)cc3c2-c2ccccc2)cc1` (repeat unit) showed a glass transition temperature of 370.00 °C.
With `*CCC1C(=O)N(CCCCCCCCCCCCCCCC)C(=O)C1*` (repeat unit) the glass transition temperature was 65.60 °C.
With `*Oc1ccc(C2(c3ccc(OC(*)=O)c(C)c3)CCCCC2)cc1C` (repeat unit) the glass transition temperature was 137.50 °C.
Work on `*N=P(N=P(N=S(*)(=O)NCC=C)(NCC=C)NCC=C)(NCC=C)NCC=C` (repeat unit) yielded a glass transition temperature of -18.00 °C.
With `*OC(=O)c1ccc(CCCCc2ccc(C(*)=O)cc2)cc1` (repeat unit) the glass transition temperature was 46.00 °C.
In the case of `*Oc1ccc(/C=C2\CC/C(=C\c3ccc(OC(=O)c4ccc(/N=C/c5ccc(/C=N/c6ccc(C(*)=O)cc6)cc5)cc4)c(OC)c3)C2=O)cc1OC` (repeat unit), the glass transition temperature is reported as 140.00 °C.
With `*CC(*)c1ccc(C)nc1` (repeat unit) the glass transition temperature was 136.00 °C.
For `*Oc1ccc(NC(=O)c2ccc(Oc3ccc(C(C)(C)c4cccc(C(C)(C)c5ccc(Oc6ccc(C(=O)Nc7ccc(*)cc7)cc6)cc5)c4)cc3)cc2)cc1` (repeat unit), the glass transition temperature was 155.00 °C.
In the case of `*CCCOc1ccc(C(=O)OC(=O)c2ccc(O*)cc2)cc1` (repeat unit), the glass transition temperature is reported as 95.00 °C.
Work on `*CCCCOC(=O)c1cccc(C(=O)O*)c1` (repeat unit) [Poly(tetramethylene isophthalate)] yielded a glass transition temperature of 21.42 ± 3.4 °C.
`*Oc1ccc(-c2ccc(Oc3ccc(Oc4cc(Oc5ccc(*)cc5)ccc4CCCCCC)cc3)c3ccccc23)c2ccccc12` (repeat unit) gave a glass transition temperature of 150.00 °C.
With `*c1c(C)cc(-c2cc(C)c(N3C(=O)c4cccc(Oc5c(C)cc(-c6cc(C)c(Oc7cccc8c7C(=O)N(*)C8=O)c(C)c6)cc5C)c4C3=O)c(C)c2)cc1C` (repeat unit) the glass transition temperature was 327.00 °C.
Molecule `*c1cccc(NC(=O)CCCCCCC(=O)Nc2cccc(S(*)(=O)=O)c2)c1` (repeat unit) has a glass transition temperature of 125.00 °C.
Work on `*c1nnc(-c2cc(CCCCCCCCCC)c(-c3sc(-c4nnc(-c5cc(OCCCCCCCC)c(*)cc5OCCCCCCCC)o4)cc3CCCCCCCCCC)s2)o1` (repeat unit) yielded a glass transition temperature of 53.80 °C.
For `*C(=O)c1ccc2c(c1)C(=O)N(c1cc(N3C(=O)c4ccc(*)cc4C3=O)c(C)cc1C)C2=O` (repeat unit), the glass transition temperature was 305.00 °C.
For `*c1ccc(Nc2nc(Nc3ccc(-c4nc5cc(-c6ccc7[nH]c(*)nc7c6)ccc5[nH]4)cc3)nc(N(c3ccccc3)c3ccccc3)n2)cc1` (repeat unit), the glass transition temperature was 329.00 °C.
`*c1ccc(Sc2ccc(Oc3ccc(Sc4ccc(N5C(=O)c6ccc(Oc7ccc(C(C)(C)c8ccc(Oc9ccc%10c(c9)C(=O)N(*)C%10=O)cc8)cc7)cc6C5=O)cc4)cc3)cc2)cc1` (repeat unit) gave a glass transition temperature of 199.00 °C.
Work on `*Cc1ccc(COP(=O)(/N=N/c2ccc(Oc3ccc(/N=N/P(=O)(O*)OC)cc3)cc2)OC)cc1` (repeat unit) yielded a glass transition temperature of 50.00 °C.
`*CC(C#N)C(CCC(C)(O)C=C)C(*)(C)C` (repeat unit) gave a glass transition temperature of 50.00 °C.
Molecule `*C(=O)Nc1cc(C(F)(F)F)ccc1Oc1cccc2c(Oc3ccc(C(F)(F)F)cc3NC(=O)c3ccc4c(c3)C(=O)N(c3ccc(Oc5ccc(N6C(=O)c7ccc(*)cc7C6=O)cc5-c5ccccc5)c(-c5ccccc5)c3)C4=O)cccc12` (repeat unit) has a glass transition temperature of 376.00 °C.
Molecule `*CC(*)(F)C(=O)OCC(F)(F)C(F)F` (repeat unit) has a glass transition temperature of 90.50 °C.
In the case of `*CC(*)(C)C(=O)Oc1ccc(C(=O)Oc2ccc(OC)cc2)cc1` (repeat unit), the glass transition temperature is reported as 77.00 °C.
Work on `*Oc1ccc(Oc2cccc(*)n2)c(-c2ccccc2)c1` (repeat unit) yielded a glass transition temperature of 115.00 °C.

— the PolyMetriX glass transition set
